Measured values as given in PMC9100779, “Simple and Expedient Access to Novel Fluorinated Thiazolo- and Oxazolo[3,2-a]pyrimidin-7-one Derivatives and Their Functionalization via Palladium-Catalyzed Reactions” (Molecules, 2022).

Target: T1, human monoamine oxidase A (hMAO-A) (Homo sapiens, UniProt P21397)
T1 construct: gene MAOA
T1 sequence (P21397 1-527): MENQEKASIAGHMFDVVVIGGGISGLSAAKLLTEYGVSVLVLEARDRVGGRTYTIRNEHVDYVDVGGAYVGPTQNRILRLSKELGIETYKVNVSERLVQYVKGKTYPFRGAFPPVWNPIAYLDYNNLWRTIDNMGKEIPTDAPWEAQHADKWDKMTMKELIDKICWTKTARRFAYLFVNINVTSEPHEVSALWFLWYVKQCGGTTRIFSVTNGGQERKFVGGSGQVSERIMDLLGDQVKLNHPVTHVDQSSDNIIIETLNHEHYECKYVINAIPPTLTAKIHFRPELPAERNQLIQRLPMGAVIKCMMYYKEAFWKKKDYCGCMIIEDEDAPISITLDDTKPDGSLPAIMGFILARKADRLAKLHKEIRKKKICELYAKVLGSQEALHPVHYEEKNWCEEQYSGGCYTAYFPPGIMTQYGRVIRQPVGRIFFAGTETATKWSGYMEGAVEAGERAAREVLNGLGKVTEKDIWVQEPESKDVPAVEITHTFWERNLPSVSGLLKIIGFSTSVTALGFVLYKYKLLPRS
Test: in vitro hMAO-A enzyme inhibition assay with p-tyramine as substrate, serial dilution
Type: biochemical

IC50: 54.1 µM
SMILES: O=c1cc(C(F)(F)c2ccc(Br)cc2)n2cc(Br)sc2n1 [3g, 2-Bromo-5-[(4-bromophenyl)difluoromethyl]-7H-thiazolo[3,2-a]pyrimidin-7-one]
